Measurements from US20200338084A1, “INHIBITORS OF LOW MOLECULAR WEIGHT PROTEIN TYROSINE PHOSPHATASE (LMPTP) AND USES THEREOF” (Sanford Burnham Prebys Medical Discovery Institute, priority 2018, published 2020).
pIC50: −log10 of the molar value.

The molecules below were run against T1, human LMPTP-A (Homo sapiens, UniProt P24666) (assay: Enzyme Assay of Inhibition of LMPTP-A). Conditions: phosphatase assay, OMFP or pNPP substrate, 50 mM Bis-Tris pH 6.0, 37° C.
T1 sequence (P24666 1-158): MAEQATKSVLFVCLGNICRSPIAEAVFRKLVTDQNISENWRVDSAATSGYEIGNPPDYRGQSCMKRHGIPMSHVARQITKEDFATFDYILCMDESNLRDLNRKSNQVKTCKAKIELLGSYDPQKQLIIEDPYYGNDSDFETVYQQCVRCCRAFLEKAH
Type: biochemical
Experimental: Phosphatase assays were performed in buffer containing 50 mM Bis-Tris, pH 6.0, 1 mM DTT and 0.01% Triton X-100 at 37° C. For assays conducted with 3-O-methylfluorescein phosphate (OMFP) as substrate, fluorescence was monitored continuously at λex=485 and λem=525 nm. For assays conducted with para-nitrophenylphosphate (pNPP) as substrate, the reaction was stopped by addition of 2× reaction volume of 1 M NaOH, and absorbance was measured at 405 nm. IC50 values of compounds disclosed herein were determined from plots of inhibitor concentration versus percentage of enzyme activity. For inhibitor selectivity assays, each PTP was incubated with either 0.4 mM OMFP or 5 mM pNPP in the presence of 40 μM compound or DMSO. […] For the inhibitor reversibility assay, 50 nM human LMPTP-A was pre-incubated with 10 μM of compound disclosed herein or DMSO for 5 min. The enzyme was diluted 100× in phosphatase assay buffer containing 0.4 mM OMFP and fluorescence was measured at the indicated time points.

With N#Cc1cccc(-c2nc3c(N)ncn(Cc4c(Cl)cccc4Cl)c-3n2)c1 [3-{6-Amino-3-[(2,6-dichlorophenyl)methyl]-3-hydropurin-8-yl}benzenecarbonitrile] as the molecule, how does the pIC50 read?
Its pIC50 is ≥ 6.00.

With Nc1ncn(Cc2c(Cl)cccc2Cl)c2nc(C(F)(F)C(F)(F)F)nc1-2 [3-[(2,6-dichlorophenyl)methyl]-8-(1,1,2,2,2-pentafluoroethyl)-3-hydropurine-6-ylamine] as the molecule, how does the pIC50 read?
The pIC50 was ≤ 4.70.

How did the pIC50 turn out when FC(F)(F)c1ccc(Nc2ncn(Cc3c(Cl)cccc3Cl)c3ncnc2-3)cc1 [3-(2,6-dichlorobenzyl)-N-(4-(trifluoromethyl)phenyl)-3H-purin-6-amine] was run?
Its pIC50 is 4.70 to 6.00.

How did the pIC50 turn out when O=C(Nc1ncn(Cc2c(Cl)cccc2Cl)c2ncnc1-2)c1ccco1 [Furan-2-carboxylicacid [3-(2,6-dichloro-benzyl)-3H-purin-6-yl]-amide] was run?
The pIC50 was 4.70 to 6.00.

Fc1ccc(CNc2ncn(Cc3c(Cl)cccc3Cl)c3ncnc2-3)cc1 [[3-(2,6-Dichloro-benzyl)-3H-purin-6-yl]-(4-fluoro-benzyl)-amine] was tested. Which pIC50 did it give?
The pIC50 was 4.70 to 6.00.

With Cc1csc(-c2nc3c(N)ncn(Cc4c(Cl)cccc4Cl)c-3n2)c1 [3-[(2,6-Dichlorophenyl)methyl]-8-(4-methyl(2-thienyl))-3-hydropurine-6-ylamine] as the molecule, how does the pIC50 read?
The pIC50 was ≤ 4.70.

With Nc1ncn(Cc2ccncc2Cl)c2ncnc1-2 [3-[(3-chloro-4-pyridyl)methyl]-3-hydropurine-6-ylamine] as the molecule, how does the pIC50 read?
The pIC50 was 4.70 to 6.00.

With CN(C)C(=O)c1ccc(Nc2ncn(Cc3c(Cl)cccc3Cl)c3ncnc2-3)cc1 [4-((3-(2,6-Dichlorobenzyl)-3H-purin-6-yl)amino)-N,N-dimethylbenzamide] as the molecule, how does the pIC50 read?
The pIC50 was 4.70 to 6.00.

Brc1ccccc1Cn1cnc(NCc2ccco2)c2ncnc1-2 [[3-(2-Bromo-benzyl)-3H-purin-6-yl]-furan-2-ylmethyl-amine] was tested. Which pIC50 did it give?
The pIC50 was 4.70 to 6.00.

N#Cc1ccc(-c2nc3c(N)ncn(Cc4c(Cl)cccc4Cl)c-3n2)cc1 [4-{6-Amino-3-[(2,6-dichlorophenyl)methyl]-3-hydropurin-8-yl}benzenecarbonitrile] was tested. Which pIC50 did it give?
The pIC50 was ≥ 6.00.

Nc1ncn(Cc2ccccc2F)c2ncnc1-2 [3-(2-Fluoro-benzyl)-3H-purin-6-ylamine] was tested. Which pIC50 did it give?
The pIC50 was 4.70 to 6.00.

With Nc1ncn(Cc2ccccc2)c2ncnc1-2 [3-benzyl-3-hydropurine-6-ylamine, 3-Benzyl-3-hydropurine-6-ylamine] as the molecule, how does the pIC50 read?
The pIC50 was 4.70 to 6.00.

How did the pIC50 turn out when Cc1cccc(Nc2ncn(Cc3c(Cl)cccc3Cl)c3ncnc2-3)c1 [{3-[(2,6-Dichlorophenyl)methyl](3-hydropurin-6-yl)}(3-methylphenyl)amine] was run?
Its pIC50 is 4.70 to 6.00.

Cc1noc(C)c1-c1nc2c(N)ncn(Cc3c(Cl)cccc3Cl)c-2n1 [3-(2,6-dichlorobenzyl)-8-(3,5-dimethylisoxazol-4-yl)-3H-purin-6-amine] was tested. Which pIC50 did it give?
Its pIC50 is ≥ 6.00.

CC(c1ccccc1)c1nc2c(N)ncn(Cc3c(Cl)cccc3Cl)c-2n1 (stereo not drawn) [3-[(2,6-Dichlorophenyl)methyl]-8-(phenylethyl)-3-hydropurine-6-ylamine] was tested. Which pIC50 did it give?
The pIC50 was ≥ 6.00.

With CN(C)C(=O)c1cccc(Nc2ncn(Cc3c(Cl)cccc3Cl)c3ncnc2-3)c1 [3-((3-(2,6-dichlorobenzyl)-3H-purin-6-yl)amino)-N,N-dimethylbenzamide] as the molecule, how does the pIC50 read?
Its pIC50 is 4.70 to 6.00.

How did the pIC50 turn out when COc1ccc(-c2nc3c(N)ncn(Cc4c(Cl)cccc4Cl)c-3n2)cc1 [3-[(2,6-Dichlorophenyl)methyl]-8-(4-methoxyphenyl)-3-hydropurine-6-ylamine] was run?
Its pIC50 is ≥ 6.00.

Nc1ncn(Cc2nc3ccccc3s2)c2ncnc1-2 [3-(benzo[d]thiazol-2-ylmethyl)-3H-purin-6-amine] was tested. Which pIC50 did it give?
The pIC50 was 4.70 to 6.00.

With Clc1cccc(Cl)c1Cn1cnc(Nc2ccccc2)c2ncnc1-2 [{3-[(2,6-Dichlorophenyl)methyl](3-hydropurin-6-yl)}phenylamine] as the molecule, how does the pIC50 read?
The pIC50 was 4.70 to 6.00.

With N#Cc1cccc(Nc2ncn(Cc3c(Cl)cccc3Cl)c3ncnc2-3)c1 [3-({3-[(2,6-Dichlorophenyl)methyl]-3-hydropurin-6-yl}amino)benzenecarbonitrile] as the molecule, how does the pIC50 read?
The pIC50 was ≤ 4.70.

CCNc1ncn(Cc2c(Cl)cccc2Cl)c2ncnc1-2 [[3-(2,6-Dichloro-benzyl)-3H-purin-6-yl]-ethyl-amine] was tested. Which pIC50 did it give?
The pIC50 was 4.70 to 6.00.
